Structures can show the parent of a compound that is named as a salt.

Consider 19 molecules from paper PMC9699089 (Pathogens, 2022).

One series concerns L. donovani (MHOM/IN/00/DEVI) promastigotes. The series is described as follows: In vitro antileishmanial activity on promastigotes, MTT assay. The series is classed as cell-based. Particulars: Leishmania donovani, 72 h incubation, mean +/- SD of three independent experiments. How it is done: L. donovani (MHOM/IN/00/DEVI) used in this study was provided by the CNR Leishmania (Montpellier, France). The effects of the tested compounds on the growth of L. donovani (MHOM/IN/00/DEVI) promastigotes were assessed by MTT assay. Briefly, promastigotes in log-phase in Schneider’s medium supplemented with 20% fetal calf serum (FCS), 2 mM L-glutamine and antibiotics (100 U/mL penicillin and 100 µg/mL streptomycin), were incubated at an average density of 10^6 parasites/mL in sterile 96-well plates with various concentrations of compounds previously dissolved in DMSO (final concentration less than 0.5% v/v), in duplicate. […] Duplicate assays were performed for each sample. After the 72 h incubation period at 27 °C, parasite metabolic activity was determined. Each well was microscopically examined for precipitate formation. To each well was added 10 µL of 10 mg/mL MTT [3-(4,5-dimethylthiazol-2-yl)-2,5-diphenyltetrazolium bromide)] solution followed by 4 h incubation time. The enzyme reaction was stopped by addition of 100 µL of 50% isopropanol/10% sodium dodecyl sulfate. Plates were vigorously shaken (300 rpm) for 10 min, and the absorbance was measured at 570 nm with 630 nm as reference wavelength in a BIOTEK ELx808 Absorbance Microplate Reader (Agilent Technologies, Les Ulis, France). […] IC50 of the parasite’s growth (half maximal inhibitory concentration or IC50 values) were then calculated from the obtained experimental results using a previously described regression program. IC50 values were calculated from three independent experiments.
On to `C[C@@H]1[C@H](O)[C@@H](C)/C=C/C=C/C=C/C=C/C=C/C=C/C=C/[C@H](O[C@@H]2O[C@H](C)[C@@H](O)[C@H](N)[C@@H]2O)C[C@@H]2O[C@](O)(C[C@@H](O)C[C@@H](O)[C@H](O)CC[C@@H](O)C[C@@H](O)CC(=O)O[C@H]1C)C[C@H](O)[C@H]2C(=O)O` [Amphotericin B, reference compound], for which the IC50 was found to be 100 ± 40 nM.

The next series concerns T. brucei brucei AnTat 1.9. The series is described as follows: In vitro antitrypanosomal activity, Alamar Blue assay. The series is classed as cell-based, Trypanosoma brucei brucei. The settings on record: Trypanosoma brucei, slender bloodstream trypomastigotes, AnTat 1.9 strain; mean +/- SD of three independent experiments; read-out: Trypanosoma brucei brucei IC50 Values Trypanos Antat 1.9. The procedure:
The effects of the tested compounds on the growth of T. brucei brucei were assessed using an Alamar Blue® assay described by Räz et al. T. brucei brucei AnTat 1.9 ([…], Belgium) was cultured in MEM with Earle's salts, supplemented according to the protocol of Baltz et al. […] All doses were tested in duplicate. Appropriate controls treated with solvents 0.9% NaCl or DMSO or with suramin, pentamidine, eflornithine, and fexinidazole (reference drugs purchased from Sigma Aldrich and Fluorochem, UK) were added to each set of experiments. After 69 h incubation period at 37 °C, 10 μL of the viability marker Alamar Blue (Fisher) was added to each well, and the plates were incubated for 5 h. The plates were read in a PerkinElmer ENSPIRE (Germany) microplate reader using an excitation wavelength of 530 nm and an emission wavelength of 590 nm.
For the molecule `CSc1ccc(OCc2ncc([N+](=O)[O-])n2C)cc1` [Fexinidazole, reference compound], the 50% inhibitory concentration (IC50) amounted to 590 ± 39 nM.

Regarding `Cc1ccc(C(=O)Nc2ccc(S(=O)(=O)O)c3cc(S(=O)(=O)O)cc(S(=O)(=O)O)c23)cc1NC(=O)c1cccc(NC(=O)Nc2cccc(C(=O)Nc3cc(C(=O)Nc4ccc(S(=O)(=O)O)c5cc(S(=O)(=O)O)cc(S(=O)(=O)O)c45)ccc3C)c2)c1` [Suramine, reference compound], the IC50 amounted to 30 ± 3 nM.

Tested on in another series: not given
Assay: not given
Settings: not given
For the molecule `CN(C)CCNCc1cc(-c2ccccc2)c2ccc3c(-c4ccccc4)cc(CNCCN(C)C)nc3c2n1` (as salt: ammonium) [Compound 1a, 2,9-Bis[(2-dimethylaminoethyl)aminomethyl]-4,7-diphenyl-1,10-phenanthroline], the melting point was in the range of 179 to 181 °C.

In turn, `CN(C)CCCNCc1cc(-c2ccccc2)c2ccc3c(-c4ccccc4)cc(CNCCCN(C)C)nc3c2n1` (as salt: ammonium) [Compound 1b, 2,9-Bis[(3-dimethylaminopropyl)aminomethyl]-4,7-diphenyl-1,10-phenanthroline] gave a melting point of 161 to 163 °C. In turn, `CN(C)CCCCNCc1cc(-c2ccccc2)c2ccc3c(-c4ccccc4)cc(CNCCCCN(C)C)nc3c2n1` (as salt: ammonium) [Compound 1c, 2,9-Bis[(4-dimethylaminobutyl)aminomethyl]-4,7-diphenyl-1,10-phenanthroline] registered a melting point of 111 to 113 °C. `CN(C)CCCCCNCc1cc(-c2ccccc2)c2ccc3c(-c4ccccc4)cc(CNCCCCCN(C)C)nc3c2n1` (as salt: ammonium) [Compound 1d, 2,9-Bis[(5-dimethylaminopentyl)aminomethyl]-4,7-diphenyl-1,10-phenanthroline] had a melting point of 119 to 121 °C. The same measure, in the same setting: the result for `CN1CCN(CCNCc2cc(-c3ccccc3)c3ccc4c(-c5ccccc5)cc(CNCCN5CCN(C)CC5)nc4c3n2)CC1` (as salt: ammonium) [Compound 1e] reads 185 to 187 °C; that for `CN1CCN(CCCNCc2cc(-c3ccccc3)c3ccc4c(-c5ccccc5)cc(CNCCCN5CCN(C)CC5)nc4c3n2)CC1` (as salt: ammonium) [Compound 1f], 205 to 207 °C. The same measure, in the same setting: the result for `CN1CCN(CCCCNCc2cc(-c3ccccc3)c3ccc4c(-c5ccccc5)cc(CNCCCCN5CCN(C)CC5)nc4c3n2)CC1` (as salt: ammonium) [Compound 1g] reads 207 to 209 °C; that for `c1ccc(-c2cc(CNCCN3CCOCC3)nc3c2ccc2c(-c4ccccc4)cc(CNCCN4CCOCC4)nc23)cc1` (as salt: ammonium) [Compound 1h], 194 to 196 °C; that for `c1ccc(-c2cc(CNCCCN3CCOCC3)nc3c2ccc2c(-c4ccccc4)cc(CNCCCN4CCOCC4)nc23)cc1` (as salt: ammonium) [Compound 1i], 174 to 176 °C. Still for that read-out and setting: the result for `c1ccc(-c2cc(CNCCN3CCCCC3)nc3c2ccc2c(-c4ccccc4)cc(CNCCN4CCCCC4)nc23)cc1` (as salt: ammonium) [Compound 1j] reads 192 to 194 °C. `c1ccc(-c2cc(CNCCCN3CCCCC3)nc3c2ccc2c(-c4ccccc4)cc(CNCCCN4CCCCC4)nc23)cc1` (as salt: ammonium) [Compound 1k]: the melting point was 141 to 143 °C.

On to `c1ccc(-c2cc(CNCCCN3CCCC3)nc3c2ccc2c(-c4ccccc4)cc(CNCCCN4CCCC4)nc23)cc1` (as salt: ammonium) [Compound 1l], for which the melting point was 145 to 147 °C. With `c1ccc(-c2cc(CNCCc3ccccn3)nc3c2ccc2c(-c4ccccc4)cc(CNCCc4ccccn4)nc23)cc1` (as salt: ammonium) [Compound 1m], the melting point was 165 to 167 °C. As for `c1ccc(-c2cc(CNCCc3cccnc3)nc3c2ccc2c(-c4ccccc4)cc(CNCCc4cccnc4)nc23)cc1` (as salt: ammonium) [Compound 1n], the melting point was 164 to 166 °C.

The molecule `c1ccc(-c2cc(CNCCc3ccncc3)nc3c2ccc2c(-c4ccccc4)cc(CNCCc4ccncc4)nc23)cc1` (as salt: ammonium) [Compound 1o] had a melting point of 147 to 149 °C. On the same count and under the same terms, the result for `c1ccc(-c2cc(CNCCCc3ccncc3)nc3c2ccc2c(-c4ccccc4)cc(CNCCCc4ccncc4)nc23)cc1` (as salt: ammonium) [Compound 1p] reads 99 to 101 °C.
